Consider 10 compounds from ChEMBL document CHEMBL1153519, “Characterization of novel selective H1-antihistamines for clinical evaluation in the treatment of insomnia” (J Med Chem, 2009).

The subject of series [1] is Rattus norvegicus. The series can be described thus: Increase in NREM sleep in CD IGS rat model of insomnia at 30 mg/kg, po after 4 hrs by EEG/EMG study relative to vehicle control. In kind it is functional.
Series [2] deals with Rattus norvegicus. The series can be described thus: Effect on sleep-awake pattern in CD IGS rat model of insomnia assessed as latency to 1 min NREM sleep at 30 mg/kg, po by EEG/EMG study relative to vehicle control. Format: functional.
Series [3] concerns Rattus norvegicus. The series can be described thus: Increase in REM sleep in CD IGS rat model of insomnia at 30 mg/kg, po after 4 hrs by EEG/EMG study relative to vehicle control. Format: functional.
In series [4] the test system is Rattus norvegicus. The series can be described thus: Effect on sleep-awake pattern in CD IGS rat model of insomnia assessed as latency to 20 secs REM sleep at 30 mg/kg, po by EEG/EMG study relative to vehicle control. Format: functional.
A further series concerns the target Histamine H1 receptor (Homo sapiens, UniProt P35367). The series can be described thus: Displacement of [3H]pyrilamine from human histamine H1 receptor expressed in CHO Flp-In cells by liquid scintillation counting. Format: cell-based.
Series [5] concerns the target T1, Muscarinic acetylcholine receptor M1 (Homo sapiens, UniProt P11229).
T1 sequence (P11229 whole entry): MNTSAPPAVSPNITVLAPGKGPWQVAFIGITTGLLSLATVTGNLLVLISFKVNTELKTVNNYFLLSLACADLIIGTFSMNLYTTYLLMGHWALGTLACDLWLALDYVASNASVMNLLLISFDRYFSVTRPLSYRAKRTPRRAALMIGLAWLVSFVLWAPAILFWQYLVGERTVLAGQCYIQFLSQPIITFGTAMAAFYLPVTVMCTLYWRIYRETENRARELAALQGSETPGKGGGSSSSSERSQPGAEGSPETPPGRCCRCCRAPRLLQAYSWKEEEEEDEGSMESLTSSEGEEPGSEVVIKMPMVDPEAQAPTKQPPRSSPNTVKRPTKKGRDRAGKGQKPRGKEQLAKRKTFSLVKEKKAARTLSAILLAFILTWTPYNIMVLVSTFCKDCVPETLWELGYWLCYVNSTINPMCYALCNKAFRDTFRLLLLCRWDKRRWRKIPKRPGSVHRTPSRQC
Description: Displacement of [3H]N-methylscopolamine from human muscarinic M1 receptor expressed in CHO Flp-In cells by liquid scintillation counting. In kind it is cell-based.

Series [6] deals with T2, 5-hydroxytryptamine receptor 2A (Homo sapiens, UniProt P28223). The series can be described thus: Displacement of [3H]ketanserin from human 5HT2A receptor expressed in HEK293 Flp-In cells at 10 uM by liquid scintillation counting. Format: cell-based.
The target of series [7] is Voltage-gated inwardly rectifying potassium channel KCNH2 (Homo sapiens, UniProt Q12809). Description: Inhibition of human ERG expressed in HEK293 cells by patch-clamp technique.
The next series has as its target Cytochrome P450 2D6 (Homo sapiens, UniProt P10635). The series can be described thus: Inhibition of recombinant CYP2D6 in presence of NADPH generating system.
The target in the next series is Cytochrome P450 3A4 (Homo sapiens, UniProt P08684). The series can be described thus: Inhibition of recombinant CYP3A4 in presence of NADPH generating system. The conditions noted are these: recombinant enzyme. Format: ADME.
Series [8] addresses Histamine H3 receptor (Homo sapiens) (UniProt Q9Y5N1). The series can be described thus: Displacement of [3H]R-alpha-methylhistamine from human histamine H3 receptor expressed in CHO Flp-In cells by liquid scintillation counting. Format: cell-based.
Series [9] has as its system Rattus norvegicus. Description: Increase in NREM sleep in CD IGS rat model of insomnia at 60 mg/kg, po after 4 hrs by EEG/EMG study relative to vehicle control. In kind it is functional.
Series [10] deals with Rattus norvegicus. Description: Effect on sleep-awake pattern in CD IGS rat model of insomnia assessed as latency to 1 min NREM sleep at 60 mg/kg, po by EEG/EMG study relative to vehicle control. In kind it is functional.
Series [11] deals with Rattus norvegicus. The series can be described thus: Increase in REM sleep in CD IGS rat model of insomnia at 60 mg/kg, po after 4 hrs by EEG/EMG study relative to vehicle control. Format: functional.
Series [12] deals with Rattus norvegicus. The series can be described thus: Effect on sleep-awake pattern in CD IGS rat model of insomnia assessed as latency to 20 secs REM sleep at 60 mg/kg, po by EEG/EMG study relative to vehicle control. In kind it is functional.
A short description of series [13]: in vitro. The conditions noted are these: human, liver microsomes.
Series [14] in a line: Drug level in rat brain at 30 mg/kg after 1 hr by LC-MS-MS analysis. The note with it: read-out: Drug uptake. Format: ADME, organism-based. Further details: dose 30 mg/kg.
Series [15] in a line: Drug level in rat brain at 30 mg/kg after 4 hrs by LC-MS-MS analysis. In kind it is ADME, organism-based. On the set-up: dose 30 mg/kg. The note with it: read-out: Drug uptake.
Series [16] can be described thus: Systemic clearance in rat by LC-MS-MS analysis. The conditions noted are these: human, in vivo.
Another series concerns Cynomolgus monkey. The series can be described thus: Cardiotoxicity in conscious cynomolgus monkey assessed as decrease in heart rate up to 200 mg/kg administered as escalated dose with 1 week washout period between doses by telemetry study. Format: toxicity, organism-based, Macaca fascicularis. On the set-up: dose 200 mg/kg; scale not given: the % may be the effect or the level left. The conditions noted are these: in vivo, 168 h.

Series [17] is described as follows: in vitro. The note with it: rat, liver microsomes.
Series [18] is described as follows: Plasma concentration in rat at 30 mg/kg, po after 1 hr.
In series [19] the target is T2, 5-hydroxytryptamine receptor 2A. Description: Displacement of [3H]ketanserin from human 5HT2A receptor expressed in HEK293 Flp-In cells by liquid scintillation counting. Format: cell-based.
Series [20] addresses Muscarinic acetylcholine receptor M3 (Homo sapiens, UniProt P20309). Description: Displacement of [3H]N-methylscopolamine from human muscarinic M3 receptor expressed in CHO Flp-In cells by liquid scintillation counting. In kind it is cell-based.
Series [21] is described as follows: Half life in human. Format: ADME, organism-based. The note with it: in vivo.
A short description of series [22]: Elimination half life in human at 50 mg, po. In kind it is ADME, organism-based. The note with it: in vivo, read-out: beta t1/2 (converted).

SMILES strings stand for the structures. Calls of active or inactive are those of the source. The rule behind the calls is not given here.

T2 sequence (P28223 whole entry): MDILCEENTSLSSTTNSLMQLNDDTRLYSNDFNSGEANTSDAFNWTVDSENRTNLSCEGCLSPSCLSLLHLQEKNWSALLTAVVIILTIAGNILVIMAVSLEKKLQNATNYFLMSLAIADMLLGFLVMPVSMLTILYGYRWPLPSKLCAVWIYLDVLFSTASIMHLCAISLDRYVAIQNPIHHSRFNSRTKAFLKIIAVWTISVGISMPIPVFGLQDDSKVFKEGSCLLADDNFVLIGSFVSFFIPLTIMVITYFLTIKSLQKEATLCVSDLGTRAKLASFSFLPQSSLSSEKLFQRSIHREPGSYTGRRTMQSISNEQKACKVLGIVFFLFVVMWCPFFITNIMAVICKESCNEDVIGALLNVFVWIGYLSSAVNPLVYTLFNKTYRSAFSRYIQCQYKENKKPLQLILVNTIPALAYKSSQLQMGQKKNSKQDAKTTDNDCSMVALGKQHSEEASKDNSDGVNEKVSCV
Histamine H1 receptor, sequence (P35367 whole entry): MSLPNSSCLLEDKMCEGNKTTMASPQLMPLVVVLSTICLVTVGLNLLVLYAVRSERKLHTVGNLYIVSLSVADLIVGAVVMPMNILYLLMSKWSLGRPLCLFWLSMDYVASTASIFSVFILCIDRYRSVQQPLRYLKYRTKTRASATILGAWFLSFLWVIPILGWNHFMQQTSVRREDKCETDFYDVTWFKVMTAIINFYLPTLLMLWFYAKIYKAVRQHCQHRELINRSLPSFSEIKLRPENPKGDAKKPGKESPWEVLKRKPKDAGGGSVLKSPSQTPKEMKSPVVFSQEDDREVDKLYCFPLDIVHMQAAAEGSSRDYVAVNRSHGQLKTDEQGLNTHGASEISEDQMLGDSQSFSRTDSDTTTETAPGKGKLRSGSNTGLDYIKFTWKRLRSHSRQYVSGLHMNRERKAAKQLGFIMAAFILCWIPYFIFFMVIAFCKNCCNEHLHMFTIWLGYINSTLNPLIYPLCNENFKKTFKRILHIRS
Histamine H3 receptor (Homo sapiens), sequence (Q9Y5N1 whole entry): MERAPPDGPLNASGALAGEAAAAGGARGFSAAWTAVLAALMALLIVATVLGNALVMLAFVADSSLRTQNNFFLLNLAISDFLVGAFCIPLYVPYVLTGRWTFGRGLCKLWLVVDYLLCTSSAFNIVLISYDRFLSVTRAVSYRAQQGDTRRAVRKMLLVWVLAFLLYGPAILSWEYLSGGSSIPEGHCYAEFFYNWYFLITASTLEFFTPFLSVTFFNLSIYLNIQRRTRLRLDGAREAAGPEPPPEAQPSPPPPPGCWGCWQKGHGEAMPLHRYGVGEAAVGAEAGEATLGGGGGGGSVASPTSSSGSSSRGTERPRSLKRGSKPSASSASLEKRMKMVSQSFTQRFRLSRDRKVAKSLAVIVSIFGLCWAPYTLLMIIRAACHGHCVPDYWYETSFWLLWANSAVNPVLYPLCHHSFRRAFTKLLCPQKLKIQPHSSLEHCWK
Cytochrome P450 2D6, sequence (P10635 whole entry): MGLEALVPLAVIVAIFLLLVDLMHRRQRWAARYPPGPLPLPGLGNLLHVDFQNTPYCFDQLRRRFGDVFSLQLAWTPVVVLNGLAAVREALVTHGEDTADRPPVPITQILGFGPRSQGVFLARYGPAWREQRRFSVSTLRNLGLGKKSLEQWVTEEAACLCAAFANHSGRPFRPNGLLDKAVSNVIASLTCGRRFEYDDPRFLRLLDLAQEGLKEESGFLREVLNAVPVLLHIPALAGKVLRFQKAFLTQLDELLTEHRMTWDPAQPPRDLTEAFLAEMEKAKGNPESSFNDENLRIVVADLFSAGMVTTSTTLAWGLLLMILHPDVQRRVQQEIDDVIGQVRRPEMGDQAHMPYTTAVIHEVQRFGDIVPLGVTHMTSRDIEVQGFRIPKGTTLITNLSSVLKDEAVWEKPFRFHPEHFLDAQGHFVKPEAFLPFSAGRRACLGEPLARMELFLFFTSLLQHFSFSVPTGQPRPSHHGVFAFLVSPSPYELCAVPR
Voltage-gated inwardly rectifying potassium channel KCNH2, sequence (Q12809 whole entry): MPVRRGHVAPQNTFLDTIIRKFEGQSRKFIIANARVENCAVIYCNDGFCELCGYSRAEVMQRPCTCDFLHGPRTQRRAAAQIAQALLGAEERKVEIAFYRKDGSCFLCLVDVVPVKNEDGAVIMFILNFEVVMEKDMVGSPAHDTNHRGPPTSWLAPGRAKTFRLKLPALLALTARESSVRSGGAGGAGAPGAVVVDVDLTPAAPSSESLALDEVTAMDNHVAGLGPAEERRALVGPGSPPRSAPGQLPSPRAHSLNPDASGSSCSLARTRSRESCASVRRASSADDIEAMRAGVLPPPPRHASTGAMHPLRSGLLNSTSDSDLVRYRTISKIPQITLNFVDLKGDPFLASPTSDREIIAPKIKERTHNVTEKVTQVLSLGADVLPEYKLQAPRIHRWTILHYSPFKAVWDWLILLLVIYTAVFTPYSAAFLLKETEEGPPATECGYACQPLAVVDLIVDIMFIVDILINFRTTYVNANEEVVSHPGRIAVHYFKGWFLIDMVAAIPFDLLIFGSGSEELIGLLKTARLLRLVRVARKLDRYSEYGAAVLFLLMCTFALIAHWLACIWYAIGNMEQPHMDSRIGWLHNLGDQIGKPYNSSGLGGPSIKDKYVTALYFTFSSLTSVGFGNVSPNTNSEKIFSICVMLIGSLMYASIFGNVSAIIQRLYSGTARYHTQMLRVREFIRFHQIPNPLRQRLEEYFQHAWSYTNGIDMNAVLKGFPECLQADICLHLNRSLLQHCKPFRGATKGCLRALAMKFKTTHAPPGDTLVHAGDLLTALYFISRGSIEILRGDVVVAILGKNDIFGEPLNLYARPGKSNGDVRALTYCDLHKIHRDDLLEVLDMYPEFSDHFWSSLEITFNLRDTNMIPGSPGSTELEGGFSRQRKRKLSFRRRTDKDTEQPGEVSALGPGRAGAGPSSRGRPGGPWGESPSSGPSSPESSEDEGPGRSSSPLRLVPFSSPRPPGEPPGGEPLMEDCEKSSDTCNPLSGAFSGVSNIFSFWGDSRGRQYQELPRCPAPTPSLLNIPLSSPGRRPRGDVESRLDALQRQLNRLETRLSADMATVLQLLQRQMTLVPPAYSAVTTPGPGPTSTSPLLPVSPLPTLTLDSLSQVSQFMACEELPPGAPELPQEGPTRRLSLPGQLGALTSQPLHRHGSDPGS
Muscarinic acetylcholine receptor M3, sequence (P20309 whole entry): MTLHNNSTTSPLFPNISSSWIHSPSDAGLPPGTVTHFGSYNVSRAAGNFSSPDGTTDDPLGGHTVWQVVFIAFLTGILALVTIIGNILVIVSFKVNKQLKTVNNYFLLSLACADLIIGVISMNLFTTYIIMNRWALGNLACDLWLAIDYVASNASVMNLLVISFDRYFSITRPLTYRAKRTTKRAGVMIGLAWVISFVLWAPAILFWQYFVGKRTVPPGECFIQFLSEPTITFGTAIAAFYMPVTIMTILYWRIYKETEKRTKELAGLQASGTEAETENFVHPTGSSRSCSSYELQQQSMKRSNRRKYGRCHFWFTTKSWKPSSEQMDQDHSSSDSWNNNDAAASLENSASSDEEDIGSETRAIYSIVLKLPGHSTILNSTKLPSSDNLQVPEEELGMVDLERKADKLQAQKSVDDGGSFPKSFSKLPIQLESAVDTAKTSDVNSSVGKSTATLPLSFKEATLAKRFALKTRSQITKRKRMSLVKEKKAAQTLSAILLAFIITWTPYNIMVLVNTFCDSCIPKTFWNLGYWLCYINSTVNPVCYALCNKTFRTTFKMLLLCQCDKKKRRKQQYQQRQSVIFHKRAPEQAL
Cytochrome P450 3A4, sequence (P08684 whole entry): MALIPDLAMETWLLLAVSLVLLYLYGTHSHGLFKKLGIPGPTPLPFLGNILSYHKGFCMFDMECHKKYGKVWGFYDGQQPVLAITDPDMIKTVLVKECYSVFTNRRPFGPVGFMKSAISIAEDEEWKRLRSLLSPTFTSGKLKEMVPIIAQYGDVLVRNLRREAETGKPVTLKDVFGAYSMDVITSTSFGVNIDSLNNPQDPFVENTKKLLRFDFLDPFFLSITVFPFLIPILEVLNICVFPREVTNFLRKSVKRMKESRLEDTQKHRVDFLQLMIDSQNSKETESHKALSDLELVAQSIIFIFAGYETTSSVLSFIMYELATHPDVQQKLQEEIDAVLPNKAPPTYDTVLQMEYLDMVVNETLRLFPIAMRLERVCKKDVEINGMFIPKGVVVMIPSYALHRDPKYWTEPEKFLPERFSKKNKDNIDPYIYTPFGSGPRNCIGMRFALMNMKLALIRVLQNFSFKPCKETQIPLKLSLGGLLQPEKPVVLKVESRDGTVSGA

Take `Cc1ccc(-c2nc3ccc(C)cn3c2CC(=O)N(C)C)cc1` [ZOLPIDEM]: the Activity with Rattus norvegicus [1] amounted to 220%; in the series on Rattus norvegicus [2], 18%; with Rattus norvegicus [3], 42%; with Rattus norvegicus [4], 199%.

Consider `C[C@H](C1=C(CCN(C)C)Cc2ccccc21)c1ccccn1`, for which the values for the inhibition constant Ki (on Histamine H1 receptor; in series [5]) were 0.4 nM and 2400 nM, respectively. In addition, the Activity in series [6] was 33%; in the series on Rattus norvegicus [9], 132%; in the series on Rattus norvegicus [10], 134%; in the series on Rattus norvegicus [11], 126%; in the series with Rattus norvegicus [12] it was 136%. The results for the IC50 (in series [7]; at Cytochrome P450 2D6) were 900 nM and 32500 nM, respectively. The “inhibition (INH)” value at Cytochrome P450 3A4 is given as “Not Active”. The result in [8] was inactive. For the same compound, the CLhep predicted at 1 h, 1 µM in the series “in vitro [13]” is 7 mL/min/kg.

`C[C@@H](c1ccccn1)c1c(CCN(C)C)sc2ccccc12`: the inhibition constant Ki at Histamine H1 receptor stood at 4 nM; in [5] it was 5300 nM. Also, the Activity in series [6] amounted to 31%; in the series with Rattus norvegicus [1] it was 142%; with Rattus norvegicus [2], 124%; in the series with Rattus norvegicus [3] it was 167%; with Rattus norvegicus [4], 138%; in the series with Cynomolgus monkey, 16%. For the same compound, the figures for the IC50 (in [7]; on Cytochrome P450 2D6) were 1400 nM and 28200 nM, respectively. Besides, the outcome in series [8] was inactive. Besides, the results for the concentration at 1 h in series [14] and in series [18] were 29 ng/mL and 4 ng/mL, respectively. In addition, the concentration at 4 h in [15] was found to be 23 ng/mL. The compound further yielded a clearance in series [16] of 5.2 mL/min/kg. Also, the CLhep predicted at 1 h, 1 µM in the series “in vitro [13]” was 10 mL/min/kg. The intrinsic metabolic clearance (CLint scaled) at 1 h, 1 µM in the series “in vitro [17]” was 2300 mL/min/kg.

For `CN(C)CCC1=C(Cc2cnccn2)c2ccccc2C1`, the Ki in [19] was found to be 600 nM. Besides, in [8], the result was inactive. The Activity in the series with Rattus norvegicus [9] is listed as 159%; in the series on Rattus norvegicus [10], 79%; in the series with Rattus norvegicus [11], 113%; in the series with Rattus norvegicus [12] it was 92%.

With `C[C@@H](c1ccccn1)c1c(CCN(C)C)oc2ccccc12`, the Ki came out at 0.9 nM at Histamine H1 receptor, 320 nM in series [5] and 76 nM in series [20]. In addition, the Activity in series [6] amounted to 62%. Moreover, in [8], the result was inactive. Moreover, the CLhep predicted at 1 h, 1 µM in the series “in vitro [13]” was 10 mL/min/kg.

With `CN(C)CCC1=C(Cc2ccc(F)cc2)c2ccccc2C1`, the Ki was 0.6 nM on Histamine H1 receptor and 140 nM in [19]. Moreover, the IC50 on Cytochrome P450 2D6 worked out at 300 nM. Moreover, the outcome in series [8] was inactive. Further, the CLhep predicted at 1 h, 1 µM in the series “in vitro [13]” is 13 mL/min/kg.

`CN(C)CCc1sc2ccccc2c1Cc1ccc(F)cc1`: the Ki on Histamine H1 receptor was determined as 11 nM; in [5], 2000 nM; in series [19], 90 nM. Also, the half-maximal inhibitory concentration (IC50) at Cytochrome P450 2D6 was found to be 200 nM. Also, the outcome in series [8] was inactive. Besides, the CLhep predicted at 1 h, 1 µM in “in vitro [13]” was 16 mL/min/kg.

With `C[C@H](C1=C(CCN(C)C)Cc2ccccc21)c1cnccn1`, the Activity worked out at 32% in series [6]; 145% with Rattus norvegicus [9]; 109% with Rattus norvegicus [10]; 129% in the series with Rattus norvegicus [11]; 104% in the series with Rattus norvegicus [12]. Moreover, the result in series [8] was inactive.

Consider `CC(C1=C(CCN(C)C)Cc2ccccc21)c1ccccn1` (racemic), for which the half-life in series [21] is 5 h; in series [22] it was 18 h.

In the case of `CN(C)CCc1sc2ccccc2c1Cc1cnccn1`, the affinity on Histamine H1 receptor, expressed as Ki, was 75 nM. In series [8], the outcome was inactive.
